Tests used:
Assay in all cases: KinaseProfiler
Type in all cases: biochemical
Details in all cases: 10 μM, ATP near Km
IKKalpha = target: T1, IKKalpha (Homo sapiens, UniProt O15111)
T1 construct: purchased Millipore, Inc. (KinaseProfiler service)
Outline: (§1)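 Screening conditions: one concentration (10 μM), ATP near Km per kinase, duplicate runs. Output: POC, averaged.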

ZAP-70 = target: T2, ZAP-70 (Homo sapiens, UniProt P43403)
T2 construct: purchased Millipore, Inc. (KinaseProfiler service)
Outline: as §1

ITK = target: T3, ITK (Homo sapiens, UniProt Q08881)
T3 construct: purchased Millipore, Inc. (KinaseProfiler service)
Outline: as §1

Fes = target: T4, Fes (Homo sapiens, UniProt P07332)
T4 construct: purchased Millipore, Inc. (KinaseProfiler service)
Outline: as §1

EphA5 = target: T5, EphA5 (Homo sapiens, UniProt P54756)
T5 construct: purchased Millipore, Inc. (KinaseProfiler service)
Outline: as §1

PRK2 = target: T6, PRK2 (Homo sapiens, UniProt Q16513)
T6 construct: purchased Millipore, Inc. (KinaseProfiler service)
Outline: as §1

ROCK-I = target: T7, ROCK-I (Homo sapiens, UniProt Q13464)
T7 construct: purchased Millipore, Inc. (KinaseProfiler service)
Outline: as §1

IR Activated = target: T8, IR Activated (Homo sapiens, UniProt P06213)
T8 construct: purchased Millipore, Inc. (KinaseProfiler service)
Outline: as §1

IR = target: T9, IR (Homo sapiens, UniProt P06213)
T9 construct: purchased Millipore, Inc. (KinaseProfiler service)
Outline: as §1

MARK1 = target: T10, MARK1 (Homo sapiens, UniProt Q9P0L2)
T10 construct: purchased Millipore, Inc. (KinaseProfiler service)
Outline: as §1

Flt3 = target: T11, Flt3 (Homo sapiens, UniProt P36888)
T11 construct: purchased Millipore, Inc. (KinaseProfiler service)
Outline: as §1

MKNK2 = target: T12, MKNK2 (Homo sapiens, UniProt Q9HBH9)
T12 construct: purchased Millipore, Inc. (KinaseProfiler service)
Outline: as §1

CAMK4 = target: T13, CAMK4 (Homo sapiens, UniProt Q16566)
T13 construct: purchased Millipore (KinaseProfiler service)
Outline: as §1

IRR = target: T14, IRR (Homo sapiens, UniProt P14616)
T14 construct: purchased Millipore, Inc. (KinaseProfiler service)
Outline: as §1

AMPK(A1/B1/G1) = target: T15, AMPK(A1/B1/G1) (Homo sapiens, UniProt Q13131)
T15 construct: purchased Millipore (KinaseProfiler service)
Outline: as §1

FAK = target: T16, FAK (Homo sapiens, UniProt Q05397)
T16 construct: purchased Millipore, Inc. (KinaseProfiler service)
Outline: as §1

IGF-1R = target: T17, IGF-1R (Homo sapiens, UniProt P08069)
T17 construct: purchased Millipore, Inc. (KinaseProfiler service)
Outline: as §1

MSK1 = target: T18, MSK1 (Homo sapiens, UniProt O75582)
T18 construct: purchased Millipore, Inc. (KinaseProfiler service)
Outline: as §1

mTOR/FKBP12 = target: T19, mTOR/FKBP12 (Homo sapiens, UniProt P42345)
T19 construct: purchased Millipore, Inc. (KinaseProfiler service)
Outline: as §1

PhKgamma2 = target: T20, PhKgamma2 (Homo sapiens, UniProt P15735)
T20 construct: purchased Millipore, Inc. (KinaseProfiler service)
Outline: as §1

CSK = target: T21, CSK (Homo sapiens, UniProt P41240)
T21 construct: purchased Millipore, Inc. (KinaseProfiler service)
Outline: as §1

PRKG1beta = target: T22, PRKG1beta (Homo sapiens, UniProt Q13976)
T22 construct: purchased Millipore, Inc. (KinaseProfiler service)
Outline: as §1

PKCeta = target: T23, PKCeta (Homo sapiens, UniProt P24723)
T23 construct: purchased Millipore, Inc. (KinaseProfiler service)
Outline: as §1

SGK2 = target: T24, SGK2 (Homo sapiens, UniProt Q9HBY8)
T24 construct: purchased Millipore, Inc. (KinaseProfiler service)
Outline: as §1

PKCiota = target: T25, PKCiota (Homo sapiens, UniProt P41743)
T25 construct: purchased Millipore, Inc. (KinaseProfiler service)
Outline: as §1

EGFR = target: T26, EGFR (Homo sapiens, UniProt P00533)
T26 construct: purchased Millipore, Inc. (KinaseProfiler service)
Outline: as §1

AKT2 = target: T27, AKT2 (Homo sapiens, UniProt P31751)
T27 construct: purchased Millipore (KinaseProfiler service)
Outline: as §1

GSK3beta = target: T28, GSK3beta (Homo sapiens, UniProt P49841)
T28 construct: purchased Millipore, Inc. (KinaseProfiler service)
Outline: as §1

BrSK1 = target: T29, BrSK1 (Homo sapiens, UniProt Q8TDC3)
T29 construct: purchased Millipore (KinaseProfiler service)
Outline: as §1

WNK3 = target: T30, WNK3 (Homo sapiens, UniProt Q9BYP7)
T30 construct: purchased Millipore, Inc. (KinaseProfiler service)
Outline: as §1

Ab12 = target: T31, Ab12 (Homo sapiens, UniProt P42684)
T31 construct: purchased Millipore (KinaseProfiler service)
Outline: as §1

Ron = target: T32, Ron (Homo sapiens, UniProt Q04912)
T32 construct: purchased Millipore, Inc. (KinaseProfiler service)
Outline: as §1

PKD1 = target: T33, PKD1 (Homo sapiens, UniProt Q15139)
T33 construct: purchased Millipore, Inc. (KinaseProfiler service)
Outline: as §1

DMPK = target: T34, DMPK (Homo sapiens, UniProt Q09013)
T34 construct: purchased Millipore, Inc. (KinaseProfiler service)
Outline: as §1

EphB3 = target: T35, EphB3 (Homo sapiens, UniProt P54753)
T35 construct: purchased Millipore, Inc. (KinaseProfiler service)
Outline: as §1

PAK2 = target: T36, PAK2 (Homo sapiens, UniProt Q13177)
T36 construct: purchased Millipore, Inc. (KinaseProfiler service)
Outline: as §1

GRK5 = target: T37, GRK5 (Homo sapiens, UniProt P34947)
T37 construct: purchased Millipore, Inc. (KinaseProfiler service)
Outline: as §1

MEK1 = target: T38, MEK1 (Homo sapiens, UniProt Q02750)
T38 construct: purchased Millipore, Inc. (KinaseProfiler service)
Outline: as §1

T3 sequence (Q08881 whole entry): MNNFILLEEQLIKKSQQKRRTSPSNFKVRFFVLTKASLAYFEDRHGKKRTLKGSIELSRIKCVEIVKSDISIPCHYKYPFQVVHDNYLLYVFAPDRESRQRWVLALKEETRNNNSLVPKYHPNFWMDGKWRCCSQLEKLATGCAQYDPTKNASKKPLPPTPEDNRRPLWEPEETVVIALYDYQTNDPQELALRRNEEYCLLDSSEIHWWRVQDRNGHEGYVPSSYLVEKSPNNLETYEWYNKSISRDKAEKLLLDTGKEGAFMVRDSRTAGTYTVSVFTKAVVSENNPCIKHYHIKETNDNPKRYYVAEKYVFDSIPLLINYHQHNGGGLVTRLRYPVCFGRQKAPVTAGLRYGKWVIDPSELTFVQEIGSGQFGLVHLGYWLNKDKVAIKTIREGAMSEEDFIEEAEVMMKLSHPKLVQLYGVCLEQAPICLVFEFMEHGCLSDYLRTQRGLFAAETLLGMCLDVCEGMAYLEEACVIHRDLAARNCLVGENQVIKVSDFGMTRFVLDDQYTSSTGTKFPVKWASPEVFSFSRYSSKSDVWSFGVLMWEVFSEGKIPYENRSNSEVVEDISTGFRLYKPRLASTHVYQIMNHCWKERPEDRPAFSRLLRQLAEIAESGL
T16 sequence (Q05397 whole entry): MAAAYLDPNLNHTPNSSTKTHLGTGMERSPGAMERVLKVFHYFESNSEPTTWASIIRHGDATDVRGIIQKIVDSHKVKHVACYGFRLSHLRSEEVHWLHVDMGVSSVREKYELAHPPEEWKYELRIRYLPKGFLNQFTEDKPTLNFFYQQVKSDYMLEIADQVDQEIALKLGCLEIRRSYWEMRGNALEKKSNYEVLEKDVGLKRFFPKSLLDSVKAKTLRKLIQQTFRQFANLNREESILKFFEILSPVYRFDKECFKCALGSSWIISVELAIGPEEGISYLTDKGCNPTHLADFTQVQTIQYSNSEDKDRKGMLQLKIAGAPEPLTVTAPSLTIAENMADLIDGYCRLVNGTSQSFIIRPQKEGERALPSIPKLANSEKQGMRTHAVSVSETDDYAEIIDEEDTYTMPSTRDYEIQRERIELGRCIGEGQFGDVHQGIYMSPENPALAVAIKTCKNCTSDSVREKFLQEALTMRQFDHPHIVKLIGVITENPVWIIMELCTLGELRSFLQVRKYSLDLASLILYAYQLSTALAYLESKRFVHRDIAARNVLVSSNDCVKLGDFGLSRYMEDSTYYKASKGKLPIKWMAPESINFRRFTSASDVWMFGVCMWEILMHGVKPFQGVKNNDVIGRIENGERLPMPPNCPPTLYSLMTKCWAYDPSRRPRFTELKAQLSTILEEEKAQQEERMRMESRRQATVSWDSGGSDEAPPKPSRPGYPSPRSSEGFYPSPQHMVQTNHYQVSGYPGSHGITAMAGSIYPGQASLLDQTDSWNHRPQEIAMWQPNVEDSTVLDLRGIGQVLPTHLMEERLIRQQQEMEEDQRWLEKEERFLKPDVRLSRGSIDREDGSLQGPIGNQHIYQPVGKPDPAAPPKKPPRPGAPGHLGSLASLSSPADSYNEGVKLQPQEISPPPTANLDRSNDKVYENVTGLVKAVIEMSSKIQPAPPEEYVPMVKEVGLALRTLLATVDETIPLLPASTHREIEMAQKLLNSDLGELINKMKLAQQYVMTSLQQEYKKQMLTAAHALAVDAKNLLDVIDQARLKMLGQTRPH
T23 sequence (P24723 whole entry): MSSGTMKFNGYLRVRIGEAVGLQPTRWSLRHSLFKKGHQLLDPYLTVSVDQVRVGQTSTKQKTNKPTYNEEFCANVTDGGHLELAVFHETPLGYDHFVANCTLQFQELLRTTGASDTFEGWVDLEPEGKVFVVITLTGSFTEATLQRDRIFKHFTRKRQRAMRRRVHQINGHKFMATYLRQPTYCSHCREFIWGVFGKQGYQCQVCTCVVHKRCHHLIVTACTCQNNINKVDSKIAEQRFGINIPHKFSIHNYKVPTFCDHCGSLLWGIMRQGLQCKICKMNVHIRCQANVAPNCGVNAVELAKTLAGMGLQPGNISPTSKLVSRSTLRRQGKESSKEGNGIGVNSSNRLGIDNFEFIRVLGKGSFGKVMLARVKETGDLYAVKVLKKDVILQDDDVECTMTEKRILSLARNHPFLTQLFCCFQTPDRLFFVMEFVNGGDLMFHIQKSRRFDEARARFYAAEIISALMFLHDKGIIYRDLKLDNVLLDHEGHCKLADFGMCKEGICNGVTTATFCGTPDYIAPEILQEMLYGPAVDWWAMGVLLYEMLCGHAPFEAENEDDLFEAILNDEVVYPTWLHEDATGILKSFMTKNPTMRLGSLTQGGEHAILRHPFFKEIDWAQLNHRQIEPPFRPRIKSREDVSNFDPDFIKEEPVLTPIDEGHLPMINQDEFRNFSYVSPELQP
T24 sequence (Q9HBY8 whole entry): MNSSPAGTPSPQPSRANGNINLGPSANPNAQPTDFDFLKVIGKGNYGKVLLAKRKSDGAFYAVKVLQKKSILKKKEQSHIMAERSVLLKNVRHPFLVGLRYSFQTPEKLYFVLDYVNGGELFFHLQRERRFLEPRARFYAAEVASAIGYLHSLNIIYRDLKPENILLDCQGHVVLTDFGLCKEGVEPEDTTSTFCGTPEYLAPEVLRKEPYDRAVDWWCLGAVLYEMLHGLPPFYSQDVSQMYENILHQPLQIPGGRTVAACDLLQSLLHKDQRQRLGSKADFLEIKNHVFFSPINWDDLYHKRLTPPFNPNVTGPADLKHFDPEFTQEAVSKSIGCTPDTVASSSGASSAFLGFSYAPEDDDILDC
T22 sequence (Q13976 1-686 isoform Q13976-2): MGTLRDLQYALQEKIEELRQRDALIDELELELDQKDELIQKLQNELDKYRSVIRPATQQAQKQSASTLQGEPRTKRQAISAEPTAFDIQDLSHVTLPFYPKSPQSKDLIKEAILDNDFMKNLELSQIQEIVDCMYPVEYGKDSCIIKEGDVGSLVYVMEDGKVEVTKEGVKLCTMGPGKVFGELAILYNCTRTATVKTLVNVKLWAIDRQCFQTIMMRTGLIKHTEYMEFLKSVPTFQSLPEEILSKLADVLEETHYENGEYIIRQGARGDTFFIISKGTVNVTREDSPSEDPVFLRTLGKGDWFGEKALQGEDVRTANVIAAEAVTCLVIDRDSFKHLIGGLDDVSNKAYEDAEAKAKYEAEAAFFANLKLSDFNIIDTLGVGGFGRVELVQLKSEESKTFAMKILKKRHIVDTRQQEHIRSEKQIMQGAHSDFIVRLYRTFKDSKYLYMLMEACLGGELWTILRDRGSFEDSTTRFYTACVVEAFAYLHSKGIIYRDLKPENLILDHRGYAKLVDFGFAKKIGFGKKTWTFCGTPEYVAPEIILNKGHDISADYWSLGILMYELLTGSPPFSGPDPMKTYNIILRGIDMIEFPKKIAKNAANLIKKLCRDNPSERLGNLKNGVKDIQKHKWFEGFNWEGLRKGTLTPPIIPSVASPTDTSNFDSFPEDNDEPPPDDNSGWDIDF
T28 sequence (P49841 whole entry): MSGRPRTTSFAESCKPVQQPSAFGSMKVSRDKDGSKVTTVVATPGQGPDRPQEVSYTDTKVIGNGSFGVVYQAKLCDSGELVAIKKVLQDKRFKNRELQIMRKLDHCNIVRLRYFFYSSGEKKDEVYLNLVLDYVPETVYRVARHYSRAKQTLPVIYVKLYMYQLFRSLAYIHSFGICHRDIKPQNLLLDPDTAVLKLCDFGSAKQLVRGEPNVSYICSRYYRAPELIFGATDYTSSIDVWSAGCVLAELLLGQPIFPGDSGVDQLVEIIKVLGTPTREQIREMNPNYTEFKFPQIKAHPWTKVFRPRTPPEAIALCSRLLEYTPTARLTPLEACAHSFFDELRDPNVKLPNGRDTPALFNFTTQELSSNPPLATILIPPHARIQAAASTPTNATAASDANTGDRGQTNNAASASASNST
T12 sequence (Q9HBH9 whole entry): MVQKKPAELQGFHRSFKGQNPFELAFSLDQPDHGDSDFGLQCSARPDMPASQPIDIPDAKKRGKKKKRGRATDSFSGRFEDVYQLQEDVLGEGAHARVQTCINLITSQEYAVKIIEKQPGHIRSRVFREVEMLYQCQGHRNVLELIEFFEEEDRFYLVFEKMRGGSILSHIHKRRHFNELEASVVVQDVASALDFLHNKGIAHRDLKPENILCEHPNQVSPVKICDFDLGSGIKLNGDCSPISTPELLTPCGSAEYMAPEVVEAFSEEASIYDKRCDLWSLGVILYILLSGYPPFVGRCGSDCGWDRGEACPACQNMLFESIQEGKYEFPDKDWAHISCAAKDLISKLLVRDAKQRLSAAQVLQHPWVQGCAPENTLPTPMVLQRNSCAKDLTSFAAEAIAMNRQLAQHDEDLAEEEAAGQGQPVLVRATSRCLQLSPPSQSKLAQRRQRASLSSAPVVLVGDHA
T37 sequence (P34947 whole entry): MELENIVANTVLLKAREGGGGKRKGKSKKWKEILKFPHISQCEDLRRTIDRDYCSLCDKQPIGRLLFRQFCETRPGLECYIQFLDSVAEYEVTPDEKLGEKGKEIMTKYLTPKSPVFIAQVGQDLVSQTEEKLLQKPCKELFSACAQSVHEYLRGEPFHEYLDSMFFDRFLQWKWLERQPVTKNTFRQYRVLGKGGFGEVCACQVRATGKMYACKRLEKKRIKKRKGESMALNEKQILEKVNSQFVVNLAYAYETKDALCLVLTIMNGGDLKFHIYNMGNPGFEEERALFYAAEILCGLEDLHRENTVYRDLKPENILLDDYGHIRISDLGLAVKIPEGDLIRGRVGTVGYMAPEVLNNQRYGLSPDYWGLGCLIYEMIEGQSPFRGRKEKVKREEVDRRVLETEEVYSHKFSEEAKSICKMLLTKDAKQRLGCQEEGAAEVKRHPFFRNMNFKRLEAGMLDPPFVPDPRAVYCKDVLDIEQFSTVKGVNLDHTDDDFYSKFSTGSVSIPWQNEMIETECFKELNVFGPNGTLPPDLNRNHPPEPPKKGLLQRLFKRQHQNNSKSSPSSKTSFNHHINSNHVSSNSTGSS

## COCCCc1cc(Cl)c(Cl)cc1NC(=O)Nc1c(C)c(-c2cnn(C)c2)nn1-c1ccccc1 [Example 15, 1-(4,5-dichloro-2-(3-methoxypropyl)phenyl)-3-(1′,4-dimethyl-1-phenyl-1H,1′H-[3,4′-bipyrazol]-5-yl)urea]
IKKalpha
  Avg POC: 128 POC
ZAP-70
  Avg POC: 141.5 POC
ITK
  Avg POC: 125 POC
Fes
  Avg POC: 110 POC
EphA5
  Avg POC: 115.5 POC
PRK2
  Avg POC: 101.5 POC
ROCK-I
  Avg POC: 117.5 POC
IR Activated
  Avg POC: 119.5 POC
IR
  Avg POC: 95 POC
MARK1
  Avg POC: 107 POC
Flt3
  Avg POC: 81 POC
MKNK2
  Avg POC: 106 POC
CAMK4
  Avg POC: 132 POC
IRR
  Avg POC: 99.5 POC
AMPK(A1/B1/G1)
  Avg POC: 149 POC
FAK
  Avg POC: 103.5 POC
IGF-1R
  Avg POC: 85 POC
MSK1
  Avg POC: 132.5 POC
mTOR/FKBP12
  Avg POC: 97.5 POC
PhKgamma2
  Avg POC: 110.5 POC
CSK
  Avg POC: 139 POC
PRKG1beta
  Avg POC: 130 POC
PKCeta
  Avg POC: 105.5 POC
SGK2
  Avg POC: 117.5 POC
PKCiota
  Avg POC: 68 POC
EGFR
  Avg POC: 103 POC
AKT2
  Avg POC: 166.5 POC
GSK3beta
  Avg POC: 114.5 POC
BrSK1
  Avg POC: 123.5 POC
WNK3
  Avg POC: 108.5 POC
Ab12
  Avg POC: 108 POC
Ron
  Avg POC: 108.5 POC
PKD1
  Avg POC: 113.5 POC
DMPK
  Avg POC: 108.5 POC
EphB3
  Avg POC: 78.5 POC
PAK2
  Avg POC: 101.5 POC
GRK5
  Avg POC: 90 POC
MEK1
  Avg POC: 121.5 POC

Reference: patent publication US9790210B2, “N-(monocyclic aryl),N'-pyrazolyl-urea, thiourea, guanidine and cyanoguanidine compounds as TrkA kinase inhibitors” (Array BioPharma Inc., priority 2012, dated 2017)
